# Reference: US9961898B2, “Method for controlling plant disease” (SUMITOMO CHEMICAL COMPANY, LIMITED, priority 2008, dated 2018)
# What was measured:
# Assay type in all cases: in vivo
# Pythium ultimum = assay: Seed treatment, emergence of cotton under field conditions; conditions: for Ratio of sound non-transgenic seeds: non-transgenic cotton seeds; for Ratio of sound transgenic seeds: transgenic cotton seeds (Bacillus thuringiensis endotoxins, glyphosate tolerant)
# Experimental: (§1) Ethaboxam, formulated in a flowable concentrate for seed treatment use, was added to water so that the total slurry applied to a specified amount of seed would deliver a designated concentration. The prepared slurry was applied to non-transgenic corn seeds and transgenic corn seeds having both glyphosate tolerance and rootworm resistance. […] Emergence (%) was determined at 7 and 14 DAP and recorded in Table 2.
# The same procedure as Test example 2 was conducted, except that cotton seeds which express Bacillus thuringiensis endotoxins and tolerant against glyphosate, were used in place of corn seeds. Disease incited by Pythium ultimum is reduced of the […]. The transgenic cotton source provided higher field stand establishment of seedlings when compared to the non-transgenic cotton. (Table 3).
# Pythium spp. = assay: Seed treatment, emergence of corn under field conditions; conditions: for Ratio of sound non-transgenic seeds: non-transgenic corn seeds; for Ratio of sound transgenic seeds: transgenic corn seeds (glyphosate tolerance, rootworm resistance)
# Experimental: as §1
# Pythium disease = assay: Seed treatment, emergence of corn seedlings in Pythium-infested soil (tray test); conditions: 14 days 10° C. then 11 days 18° C.; for Ratio of sound non-transgenic seeds: non-transgenic corn seeds; for Ratio of sound transgenic seeds: transgenic corn seeds (glyphosate tolerance, rootworm resistance)
# Experimental: Ethaboxam, formulated in a flowable concentrate for seed treatment use, was added to water so that the total slurry applied to a specified amount of seed would deliver a designated concentration of ethaboxam per 100 KG seed. The prepared slurry was applied to non-transgenic corn seeds and to transgenic corn seeds having both glyphosate tolerance and rootworm resistance. In a tray, Kimpack (absorbent cellulose wadding, trademark of Kimberly-Clark) was placed and wetted. Each of the corn seed types of each treatment rate was placed on the Kimpack and covered with soil, which is a 1:1 mixture of Pythium-infested field soil and sand. After keeping the soil saturated for 14 days at 10° C., the trays were transferred to 18° C. for 11 days.
compound,measurement,setting,value
"CCNc1nc(CC)c(C(=O)NC(C#N)c2cccs2)s1 (centres unmarked) [ethaboxam, N-(cyano-2-thienylmethyl)-4-ethyl-2-(ethylamino)-5-thiazolecarboxamide]",Ratio of sound non-transgenic seeds,Pythium ultimum; ethaboxam 0.05 gai/100 kg seed,1.75%
same,Ratio of sound non-transgenic seeds,Pythium ultimum; ethaboxam 0.1 gai/100 kg seed,6.25%
same,Ratio of sound non-transgenic seeds,Pythium ultimum; ethaboxam 0.5 gai/100 kg seed,10.25%
same,Ratio of sound non-transgenic seeds,Pythium ultimum; ethaboxam 1.0 gai/100 kg seed,7%
same,Ratio of sound non-transgenic seeds,Pythium ultimum; ethaboxam 5 gai/100 kg seed,9.5%
same,Ratio of sound non-transgenic seeds,Pythium ultimum; ethaboxam 10 gai/100 kg seed,6.5%
same,Ratio of sound transgenic seeds,Pythium ultimum; ethaboxam 0.05 gai/100 kg seed,7.5%
same,Ratio of sound transgenic seeds,Pythium ultimum; ethaboxam 0.1 gai/100 kg seed,6.25%
same,Ratio of sound transgenic seeds,Pythium ultimum; ethaboxam 0.5 gai/100 kg seed,6%
same,Ratio of sound transgenic seeds,Pythium ultimum; ethaboxam 1.0 gai/100 kg seed,14.25%
same,Ratio of sound transgenic seeds,Pythium ultimum; ethaboxam 5 gai/100 kg seed,8.5%
same,Ratio of sound transgenic seeds,Pythium ultimum; ethaboxam 10 gai/100 kg seed,17.75%
same,Ratio of sound non-transgenic seeds,Pythium spp.; ethaboxam 0.05 gai/100 kg seed,74.5%
same,Ratio of sound non-transgenic seeds,Pythium spp.; ethaboxam 0.1 gai/100 kg seed,78.25%
same,Ratio of sound non-transgenic seeds,Pythium spp.; ethaboxam 0.5 gai/100 kg seed,76.25%
same,Ratio of sound non-transgenic seeds,Pythium spp.; ethaboxam 1.0 gai/100 kg seed,77.75%
same,Ratio of sound non-transgenic seeds,Pythium spp.; ethaboxam 5 gai/100 kg seed,81%
same,Ratio of sound non-transgenic seeds,Pythium spp.; ethaboxam 10 gai/100 kg seed,76.25%
same,Ratio of sound transgenic seeds,Pythium spp.; ethaboxam 0.05 gai/100 kg seed,86.25%
same,Ratio of sound transgenic seeds,Pythium spp.; ethaboxam 0.1 gai/100 kg seed,85%
same,Ratio of sound transgenic seeds,Pythium spp.; ethaboxam 0.5 gai/100 kg seed,89.25%
same,Ratio of sound transgenic seeds,Pythium spp.; ethaboxam 1.0 gai/100 kg seed,87.75%
same,Ratio of sound transgenic seeds,Pythium spp.; ethaboxam 5 gai/100 kg seed,86%
same,Ratio of sound transgenic seeds,Pythium spp.; ethaboxam 10 gai/100 kg seed,88.5%
same,Ratio of sound non-transgenic seeds,Pythium disease; ethaboxam 0.05 gai/100 kg seed,39%
same,Ratio of sound non-transgenic seeds,Pythium disease; ethaboxam 0.1 gai/100 kg seed,41%
same,Ratio of sound non-transgenic seeds,Pythium disease; ethaboxam 0.5 gai/100 kg seed,47%
same,Ratio of sound non-transgenic seeds,Pythium disease; ethaboxam 1.0 gai/100 kg seed,59%
same,Ratio of sound transgenic seeds,Pythium disease; ethaboxam 0.05 gai/100 kg seed,57%
same,Ratio of sound transgenic seeds,Pythium disease; ethaboxam 0.1 gai/100 kg seed,59%
same,Ratio of sound transgenic seeds,Pythium disease; ethaboxam 0.5 gai/100 kg seed,65%
same,Ratio of sound transgenic seeds,Pythium disease; ethaboxam 1.0 gai/100 kg seed,67%
